Source: patent US10159653B2, “Methods and compositions for increasing energy expenditure using cinnamaldehyde” (NESTEC S.A., priority 2013, dated 2018)

What was measured:
Human subjects [1] = experiment: Comparative taste testing; type: in vivo; details: 4.8 ppm capsaicin or 350 ppm cinnamaldehyde
Procedure: Human subjects were administered a composition comprising 4.8 ppm capsaicin or 350 ppm cinnamaldehyde. […] 87.9% of the participants judged capsaicin intense to very intense, compared to only 20.5% for cinnamaldehyde. To achieve a similar effect on fat oxidation of capsaicin and cinnamaldehyde, the dose of capsaicin is about 1.5 times less than the maximum that can be used as a flavor (7 ppm according to Fenaroli's Handbook), and the dose of cinnamaldehyde is about 17.5 times less than the maximum that can be used as a flavor (6191.0 ppm according to Fenaroli's Handbook).

Human subjects [2] = experiment: Nose temperature after ingestion; type: in vivo; details: fifteen minutes following ingestion
Procedure: The nose temperature of the subjects was analyzed over the fifteen minutes following ingestion of the various compounds.

[3] = Ludy et al. 2011; cited from earlier work
Human subjects [4] = experiment: Energy expenditure after ingestion (indirect calorimetry); type: in vivo
Procedure: Human subjects were administered placebo, a cooling flavor, capsaicin or cinnamaldehyde. The energy expenditure was measured over the eighty minutes following ingestion. […] The increased sympathetic activity identified by measuring the facial temperature (increased blood flow on the chin) might explain the increased energy expenditure measured by indirect calorimetry.

TRPM8 = TRPM8 (Homo sapiens, UniProt Q7Z2W7); details: cited from earlier work
Chain of TRPM8 (Q7Z2W7 whole entry, species assumed): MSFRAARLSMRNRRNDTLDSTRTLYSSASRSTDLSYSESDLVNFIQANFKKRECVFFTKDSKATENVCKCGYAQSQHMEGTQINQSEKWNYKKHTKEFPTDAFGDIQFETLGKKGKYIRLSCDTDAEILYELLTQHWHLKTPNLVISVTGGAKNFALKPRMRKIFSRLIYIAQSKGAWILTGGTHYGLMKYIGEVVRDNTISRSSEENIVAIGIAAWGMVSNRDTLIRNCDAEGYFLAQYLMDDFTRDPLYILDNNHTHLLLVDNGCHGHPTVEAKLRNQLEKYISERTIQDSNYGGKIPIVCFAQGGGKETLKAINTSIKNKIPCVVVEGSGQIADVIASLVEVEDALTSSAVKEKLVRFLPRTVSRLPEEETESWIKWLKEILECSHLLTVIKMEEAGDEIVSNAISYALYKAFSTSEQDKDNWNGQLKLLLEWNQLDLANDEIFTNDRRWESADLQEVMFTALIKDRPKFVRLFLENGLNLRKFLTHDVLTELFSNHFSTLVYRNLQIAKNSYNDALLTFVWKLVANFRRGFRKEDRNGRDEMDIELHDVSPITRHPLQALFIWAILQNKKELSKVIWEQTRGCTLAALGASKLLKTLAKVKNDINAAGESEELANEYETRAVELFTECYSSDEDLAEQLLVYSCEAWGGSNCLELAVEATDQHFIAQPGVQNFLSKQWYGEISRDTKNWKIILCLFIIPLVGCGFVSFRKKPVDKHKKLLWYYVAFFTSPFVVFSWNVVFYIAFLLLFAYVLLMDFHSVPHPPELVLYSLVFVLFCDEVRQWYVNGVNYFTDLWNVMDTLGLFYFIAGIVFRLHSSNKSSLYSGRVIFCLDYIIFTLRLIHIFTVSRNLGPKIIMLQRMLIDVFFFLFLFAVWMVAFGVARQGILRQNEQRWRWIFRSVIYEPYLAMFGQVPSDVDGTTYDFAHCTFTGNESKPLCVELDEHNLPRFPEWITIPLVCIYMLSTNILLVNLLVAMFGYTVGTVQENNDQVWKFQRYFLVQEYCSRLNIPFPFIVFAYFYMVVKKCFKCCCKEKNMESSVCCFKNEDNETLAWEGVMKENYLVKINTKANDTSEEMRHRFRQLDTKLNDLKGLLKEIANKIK

TRPV1 = TRPV1 (Homo sapiens, UniProt Q8NER1); details: cited from earlier work
Chain of TRPV1 (Q8NER1 whole entry, species assumed): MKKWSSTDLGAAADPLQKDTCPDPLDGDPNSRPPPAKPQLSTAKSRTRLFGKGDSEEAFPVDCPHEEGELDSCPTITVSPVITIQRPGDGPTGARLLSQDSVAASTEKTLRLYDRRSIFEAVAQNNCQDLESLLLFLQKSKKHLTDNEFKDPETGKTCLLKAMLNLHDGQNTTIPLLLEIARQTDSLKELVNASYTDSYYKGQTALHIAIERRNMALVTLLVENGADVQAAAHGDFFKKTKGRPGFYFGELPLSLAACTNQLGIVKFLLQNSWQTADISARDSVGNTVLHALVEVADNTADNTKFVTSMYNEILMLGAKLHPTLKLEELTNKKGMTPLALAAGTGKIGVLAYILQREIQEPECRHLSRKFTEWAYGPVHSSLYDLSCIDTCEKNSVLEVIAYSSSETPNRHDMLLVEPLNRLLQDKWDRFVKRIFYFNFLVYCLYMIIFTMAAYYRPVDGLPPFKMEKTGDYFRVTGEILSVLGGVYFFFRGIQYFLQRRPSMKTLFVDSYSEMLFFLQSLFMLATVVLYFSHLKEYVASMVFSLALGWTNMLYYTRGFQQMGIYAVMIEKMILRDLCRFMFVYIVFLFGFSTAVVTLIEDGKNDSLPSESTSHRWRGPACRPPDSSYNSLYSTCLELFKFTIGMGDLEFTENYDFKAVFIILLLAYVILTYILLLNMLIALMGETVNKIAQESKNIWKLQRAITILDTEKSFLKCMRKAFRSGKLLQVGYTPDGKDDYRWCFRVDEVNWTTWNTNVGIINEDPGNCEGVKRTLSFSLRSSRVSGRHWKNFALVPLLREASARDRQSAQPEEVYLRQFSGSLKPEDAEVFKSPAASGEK

Human subjects [5] = experiment: Postprandial fat oxidation after ingestion; type: in vivo
Procedure: The postprandial fat oxidation was measured over the 90 minutes following ingestion of the various compounds.

TRPA1 [6] = details: read-out: EC50 of TRPA1 activation; cited from earlier work
TRPA1 [7] = molecular target: T1, TRPA1 (Mus musculus, UniProt Q8BLA8); experiment: Pre-clinical study, single dose: gastric emptying and short term food intake; type: in vivo; details: single dose 250 mg/kg bw
T1 construct: endogenous in cells; host or cells: living animals of the pre-clinical study (probably mice)
T1 sequence (Q8BLA8 whole entry): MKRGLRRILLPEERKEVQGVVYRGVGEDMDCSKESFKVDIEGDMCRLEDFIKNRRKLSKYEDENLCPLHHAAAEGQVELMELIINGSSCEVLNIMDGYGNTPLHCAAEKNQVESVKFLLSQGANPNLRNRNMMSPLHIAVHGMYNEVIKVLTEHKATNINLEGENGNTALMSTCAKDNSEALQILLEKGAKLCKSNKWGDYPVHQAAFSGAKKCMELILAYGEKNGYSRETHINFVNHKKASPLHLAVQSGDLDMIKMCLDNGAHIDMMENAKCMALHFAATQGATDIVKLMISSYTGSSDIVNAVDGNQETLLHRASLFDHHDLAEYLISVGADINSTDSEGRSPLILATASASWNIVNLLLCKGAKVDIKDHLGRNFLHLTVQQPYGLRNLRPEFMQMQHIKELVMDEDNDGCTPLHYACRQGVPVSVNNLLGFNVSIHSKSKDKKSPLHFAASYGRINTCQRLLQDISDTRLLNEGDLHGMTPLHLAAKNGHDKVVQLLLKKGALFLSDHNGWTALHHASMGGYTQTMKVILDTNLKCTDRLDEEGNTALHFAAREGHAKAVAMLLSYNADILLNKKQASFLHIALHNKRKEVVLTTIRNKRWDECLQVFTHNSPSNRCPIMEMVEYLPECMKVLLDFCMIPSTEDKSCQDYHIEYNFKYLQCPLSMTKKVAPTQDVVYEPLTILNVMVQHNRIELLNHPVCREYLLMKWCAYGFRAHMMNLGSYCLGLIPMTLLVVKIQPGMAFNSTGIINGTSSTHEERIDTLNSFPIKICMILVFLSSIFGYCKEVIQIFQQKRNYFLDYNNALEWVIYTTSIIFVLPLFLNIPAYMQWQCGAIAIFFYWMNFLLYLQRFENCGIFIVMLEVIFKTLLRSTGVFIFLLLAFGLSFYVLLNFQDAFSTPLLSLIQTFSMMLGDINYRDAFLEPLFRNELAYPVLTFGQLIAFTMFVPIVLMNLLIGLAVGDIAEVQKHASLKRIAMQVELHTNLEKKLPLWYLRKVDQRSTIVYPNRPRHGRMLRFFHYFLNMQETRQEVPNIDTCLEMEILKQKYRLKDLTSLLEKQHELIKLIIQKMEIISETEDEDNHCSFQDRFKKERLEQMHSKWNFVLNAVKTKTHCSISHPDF

Human subjects [8] = experiment: Chin temperature after ingestion (sympathetic nervous system activity); type: in vivo
Procedure: The chin temperature of the subjects was measured over the eighty minutes following ingestion of the various compounds. […] The increased sympathetic activity identified by measuring the facial temperature (increased blood flow on the chin) might explain the increased energy expenditure measured by indirect calorimetry.

obese mice = experiment: Pre-clinical study, chronic ingestion in food; type: in vivo; details: 0.2% in food
Procedure: The findings of the inventors were especially surprising in that a low dose (1.25 mg/kg body weight per day) of cinnamaldehyde at a flavoring range can provide an effect after a single ingestion. In a pre-clinical study by the inventors, the dose of cinnamaldehyde was about 250 mg/kg body weight per day, with chronic ingestion (effect on body weight gain and insulin sensitivity).

[9] = flavoring level of cinnamaldehyde judged significantly less intense than capsaicin

Row | Compound | participants who judged the taste intense to very intense (Human subjects [1]) [%] | nose temperature (Human subjects [2]) | efficient dose for increasing energy expenditure and fat oxidation [3] [mg] | impact on energy expenditure compared to capsaicin (Human subjects [4]; [9]) | energy expenditure compared to placebo (Human subjects [4]; human subjects, eighty minutes following ingestion, time course and AUC) | activation of TRPM8 (TRPM8) | activation of TRPV1 (TRPV1) | effect on fat oxidation compared to capsaicin (Human subjects [5]; [9]) | postprandial fat oxidation compared to placebo (Human subjects [5]; human subjects, 90 minutes following ingestion, time course and AUC) | EC50 (TRPA1 [6]) [µM] | short term food intake (TRPA1 [7]) | gastric emptying (TRPA1 [7]; through TRPA1 activation) | impact on sympathetic nervous system activity compared to capsaicin (Human subjects [8]; [9]) | chin temperature relative to baseline (Human subjects [8]; human subjects, eighty minutes following ingestion) | lean mass gain (obese mice) | body weight gain (obese mice; about 250 mg/kg bw/day) | food intake (obese mice; about 250 mg/kg bw/day) | insulin sensitivity (obese mice; about 250 mg/kg bw/day) | fat mass gain (obese mice; p 0.06)
1 | COc1cc(CNC(=O)CCCC/C=C/C(C)C)ccc1O [capsaicin] | 87.9 | increase nose temperatures | ≥ 20 |  |  |  |  |  |  |  |  |  |  |  |  |  |  |  | 
2 | O=CC=Cc1ccccc1 [cinnamaldehyde] |  | increase nose temperatures |  | significantly higher impact | increased | not | not | equivalent effect | maintained at higher levels | ~60 | reduced short term food intake | delayed gastric emptying | significantly higher impact | increases chin temperature for a prolonged time | no effect | reduces body weight gain | without affecting their food intake | improves their insulin sensitivity | tendency to decrease
